Source: ChEMBL document CHEMBL1156812, “Novel synthesis of the hexahydroimidazo[1,5b]isoquinoline scaffold: application to the synthesis of glucocorticoid receptor modulators” (J Med Chem, 2010)

What was measured:
Glucocorticoid receptor [1] = molecular target: T1, Glucocorticoid receptor (Homo sapiens, UniProt P04150); test: Displacement of GS-red from human glucocorticoid receptor by fluorescent polarization assay
T1 sequence (P04150 whole entry): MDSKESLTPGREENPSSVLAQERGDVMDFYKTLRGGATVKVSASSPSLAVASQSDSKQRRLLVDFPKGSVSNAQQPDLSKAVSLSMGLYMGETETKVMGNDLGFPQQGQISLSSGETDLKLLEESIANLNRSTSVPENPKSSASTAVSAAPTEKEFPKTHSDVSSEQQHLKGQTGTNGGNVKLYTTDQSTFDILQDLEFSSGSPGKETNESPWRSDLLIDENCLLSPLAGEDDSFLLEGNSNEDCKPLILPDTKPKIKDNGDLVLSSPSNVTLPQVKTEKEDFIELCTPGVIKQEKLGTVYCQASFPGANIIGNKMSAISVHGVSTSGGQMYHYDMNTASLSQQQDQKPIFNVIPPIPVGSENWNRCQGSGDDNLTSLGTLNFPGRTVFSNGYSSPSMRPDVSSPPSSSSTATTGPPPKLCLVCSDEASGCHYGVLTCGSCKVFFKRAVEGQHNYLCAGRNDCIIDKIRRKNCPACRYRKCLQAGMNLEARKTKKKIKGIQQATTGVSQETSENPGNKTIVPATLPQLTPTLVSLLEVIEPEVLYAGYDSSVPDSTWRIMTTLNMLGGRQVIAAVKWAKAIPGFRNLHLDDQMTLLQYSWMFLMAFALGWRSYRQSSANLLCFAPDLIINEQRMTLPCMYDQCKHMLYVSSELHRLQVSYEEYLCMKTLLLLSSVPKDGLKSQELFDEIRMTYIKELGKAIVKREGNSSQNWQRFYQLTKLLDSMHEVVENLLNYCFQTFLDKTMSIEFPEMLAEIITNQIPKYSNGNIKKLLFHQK

Glucocorticoid receptor [2] = molecular target: T1, Glucocorticoid receptor; test: Transrepression activity at glucocorticoid receptor expressed in human A549 cells assessed as inhibition of PMA-induced AP1 activity after 6 hrs by luciferase reporter gene assay; type: cell-based
Androgen receptor = molecular target: T2, Androgen receptor (Homo sapiens, UniProt P10275); test: Binding affinity to androgen receptor
T2 sequence (P10275 whole entry): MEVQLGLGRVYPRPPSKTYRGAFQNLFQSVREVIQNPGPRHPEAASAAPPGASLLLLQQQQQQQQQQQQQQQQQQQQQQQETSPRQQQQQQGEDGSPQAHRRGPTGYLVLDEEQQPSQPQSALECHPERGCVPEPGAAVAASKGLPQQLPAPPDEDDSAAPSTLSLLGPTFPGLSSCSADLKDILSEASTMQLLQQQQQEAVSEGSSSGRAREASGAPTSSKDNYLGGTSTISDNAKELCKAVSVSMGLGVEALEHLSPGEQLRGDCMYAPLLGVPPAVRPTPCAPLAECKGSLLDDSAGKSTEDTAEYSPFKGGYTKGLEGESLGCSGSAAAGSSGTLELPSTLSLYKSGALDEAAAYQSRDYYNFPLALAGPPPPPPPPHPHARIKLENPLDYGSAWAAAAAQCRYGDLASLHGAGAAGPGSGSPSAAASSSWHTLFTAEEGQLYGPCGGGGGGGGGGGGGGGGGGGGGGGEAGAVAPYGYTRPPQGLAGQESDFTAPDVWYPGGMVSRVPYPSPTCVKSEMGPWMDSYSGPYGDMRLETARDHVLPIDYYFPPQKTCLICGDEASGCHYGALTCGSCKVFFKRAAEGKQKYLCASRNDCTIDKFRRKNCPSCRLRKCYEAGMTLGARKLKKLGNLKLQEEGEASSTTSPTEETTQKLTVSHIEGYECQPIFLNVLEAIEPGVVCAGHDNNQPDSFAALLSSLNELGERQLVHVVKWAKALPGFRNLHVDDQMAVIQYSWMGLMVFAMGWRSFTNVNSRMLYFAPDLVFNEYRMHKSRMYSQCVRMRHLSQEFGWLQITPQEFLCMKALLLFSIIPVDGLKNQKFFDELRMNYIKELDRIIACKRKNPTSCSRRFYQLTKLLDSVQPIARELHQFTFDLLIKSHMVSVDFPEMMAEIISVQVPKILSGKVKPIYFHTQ

Glucocorticoid receptor [3] = molecular target: T1, Glucocorticoid receptor; test: Transrepression activity at glucocorticoid receptor expressed in human A549 cells assessed as inhibition of IL-1-beta-induced NF-kappaB dependent E-selection promoter activation after 6 hrs by luciferase reporter gene based ELAM assay; type: cell-based
Glucocorticoid receptor [4] = molecular target: T1, Glucocorticoid receptor; test: Transactivation of GAL-4 tagged glucocorticoid receptor ligand binding domain expressed in human HeLa cells assessed as NP1 activation by luciferase reporter gene assay; type: cell-based
Progesterone receptor = molecular target: T3, Progesterone receptor (Homo sapiens, UniProt P06401); test: Binding affinity to progesterone receptor
T3 sequence (P06401 whole entry): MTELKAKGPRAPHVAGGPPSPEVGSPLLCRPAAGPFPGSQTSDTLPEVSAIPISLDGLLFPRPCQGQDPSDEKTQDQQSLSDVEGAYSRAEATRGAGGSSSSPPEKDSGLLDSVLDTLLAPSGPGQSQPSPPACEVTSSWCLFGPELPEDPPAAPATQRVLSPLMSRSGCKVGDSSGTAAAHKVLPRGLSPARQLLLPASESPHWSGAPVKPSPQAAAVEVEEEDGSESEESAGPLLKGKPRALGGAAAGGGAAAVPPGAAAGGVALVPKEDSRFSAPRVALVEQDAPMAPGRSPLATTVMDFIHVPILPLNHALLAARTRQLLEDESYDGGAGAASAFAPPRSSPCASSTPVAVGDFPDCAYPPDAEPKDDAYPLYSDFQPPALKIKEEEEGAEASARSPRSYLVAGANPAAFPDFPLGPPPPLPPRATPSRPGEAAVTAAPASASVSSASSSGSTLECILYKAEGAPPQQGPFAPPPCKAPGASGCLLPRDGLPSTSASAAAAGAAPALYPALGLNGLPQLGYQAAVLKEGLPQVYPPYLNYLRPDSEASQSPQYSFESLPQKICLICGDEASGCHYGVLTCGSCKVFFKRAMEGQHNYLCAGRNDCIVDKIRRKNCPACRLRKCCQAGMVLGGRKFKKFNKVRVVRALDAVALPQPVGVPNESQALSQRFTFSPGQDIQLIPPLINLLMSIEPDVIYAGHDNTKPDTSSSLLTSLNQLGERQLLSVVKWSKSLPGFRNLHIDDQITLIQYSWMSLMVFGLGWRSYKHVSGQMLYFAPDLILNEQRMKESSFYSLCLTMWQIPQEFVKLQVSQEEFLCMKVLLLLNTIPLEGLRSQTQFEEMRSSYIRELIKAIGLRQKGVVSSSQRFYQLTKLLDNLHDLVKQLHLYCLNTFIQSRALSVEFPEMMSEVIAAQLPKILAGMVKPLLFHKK

SMILES | Ki (Glucocorticoid receptor [1]) [nM] | EC50 (Glucocorticoid receptor [2]) [nM] | IC50 (Androgen receptor) [nM] | EC50 (Glucocorticoid receptor [3]) [nM] | EC50 (Glucocorticoid receptor [4]) [nM] | Ki (Progesterone receptor) [nM] | EC50 (Glucocorticoid receptor [2]; a549) [nM] | EC50 (Glucocorticoid receptor [3]; a549) [nM]
C=CC[C@H](O)C1CCCC2=Cc3c(cnn3-c3ccc(F)cc3)C[C@@]21C (stereo not given in full) | 3.9 | 9.3 | > 4000 | – | – | – | – | –
C[C@]12Cn3cnc(-c4ccc(F)cc4)c3C=C1CCC[C@@H]2[C@H](O)c1ccc(F)cc1 (stereo in doubt; 18) | 25 | > 5000 | – | > 5000 | – | – | – | –
C[C@]12Cn3cnc(-c4ccc(F)cc4)c3C=C1CCC[C@@H]2[C@](C)(O)CCc1ccccc1 | – | – | > 4000 | – | – | – | – | –
C[C@]12Cn3cnc(-c4ccc(F)cc4)c3C=C1CCC[C@@H]2[C@](C)(O)c1ccsc1 | 1 | 5 | > 4000 | 37 | > 10000 | – | – | –
C=CCC(O)C1CCCC2=Cc3c(-c4ccc(F)cc4)ncn3CC21C (single isomer, unassigned; diastereomer 1) | 8 | > 2500 | – | > 5000 | – | – | – | –
C[C@]12Cc3cnn(-c4ccc(F)cc4)c3C=C1CCCC2[C@@H](O)c1csc2ccccc12 (stereo not given in full) | 1.8 | 1.8 | – | – | – | – | – | –
C[C@]12Cn3cnc(-c4ccc(F)cc4)c3C=C1CCC[C@@H]2[C@](C)(O)C1CCCCC1 | 3.1 | 2 | > 4000 | 33 | 470 | – | – | –
C[C@]12Cn3cnc(-c4ccc(F)cc4)c3C=C1CCC[C@@H]2[C@](C)(O)c1ccc(C#N)cc1 | 2.5 | 59 | > 4000 | 105 | > 10000 | – | – | –
C[C@]12Cc3cnn(-c4ccc(F)cc4)c3C=C1CCC[C@@H]2[C@](C)(O)c1ccsc1 | 0.8 | – | > 4000 | – | – | – | – | –
C[C@]12Cn3cnc(-c4ccc(F)cc4)c3C=C1CCC[C@@H]2[C@H](O)c1ccc(F)cc1 (stereo in doubt; 19) | 21 | 272 | – | 243 | – | 451 | – | –
C[C@]12Cn3cnc(-c4ccc(F)cc4)c3C=C1CCC[C@@H]2[C@](C)(O)c1ccccc1 | 1 | 16 | > 4000 | 61 | > 5000 | – | – | –
Cc1ccc([C@@](C)(O)[C@H]2CCCC3=Cc4c(-c5ccc(F)cc5)ncn4C[C@@]32C)s1 | 1.5 | 28 | > 4000 | 18 | 272 | – | – | –
C[C@]12Cn3cnc(-c4ccc(F)cc4)c3C=C1CCC[C@@H]2[C@](C)(O)Cc1ccc(F)cc1 | 11 | 227 | > 4000 | 121 | 760 | – | – | –
C[C@]12Cn3cnc(-c4ccc(F)cc4)c3C=C1CCC[C@@H]2[C@](C)(O)c1ccc(F)cc1 | 2 | 20 | > 4000 | 44 | – | – | – | –
C[C@]12Cc3cnn(-c4ccc(F)cc4)c3C=C1CCC[C@@H]2[C@](C)(O)c1ccc(F)cc1 | 2.5 | – | > 4000 | – | – | – | – | –
C[C@]12Cn3cnc(-c4ccc(F)cc4)c3C=C1CCC[C@@H]2[C@](C)(O)c1nccs1 | 3 | 110 | > 4000 | 92 | 572 | – | – | –
C[C@]12Cn3cnc(-c4ccc(F)cc4)c3C=C1CCC[C@@H]2[C@](C)(O)c1cccc(C#N)c1 | 1 | 18 | > 4000 | 31 | > 10000 | – | – | –
CO[C@](C)(c1cccs1)[C@H]1CCCC2=Cc3c(-c4ccc(F)cc4)ncn3C[C@@]21C | 33 | > 5000 | > 4000 | > 5000 | – | – | – | –
Cc1ccccc1[C@@](C)(O)[C@H]1CCCC2=Cc3c(-c4ccc(F)cc4)ncn3C[C@@]21C | 2 | 25 | > 4000 | 31 | 920 | – | – | –
Cc1cccc([C@@](C)(O)[C@H]2CCCC3=Cc4c(-c5ccc(F)cc5)ncn4C[C@@]32C)c1 | 2.5 | 9.5 | > 4000 | 99 | 1130 | – | – | –
C=CCC(O)C1CCCC2=Cc3c(-c4ccc(F)cc4)ncn3CC21C (single isomer, unassigned; diastereomer 2) | 9 | – | – | – | – | – | > 2500 | > 5000

Second part, the compound after the results:

Ki (Glucocorticoid receptor [1]) [nM] | EC50 (Glucocorticoid receptor [2]) [nM] | IC50 (Androgen receptor) [nM] | EC50 (Glucocorticoid receptor [3]) [nM] | EC50 (Glucocorticoid receptor [4]) [nM] | Ki (Progesterone receptor) [nM] | EC50 (Glucocorticoid receptor [2]; a549) [nM] | EC50 (Glucocorticoid receptor [3]; a549) [nM] | SMILES
– | – | > 4000 | – | – | – | – | – | C[C@]12Cn3cnc(-c4ccc(F)cc4)c3C=C1CCC[C@@H]2[C@](C)(O)c1cccnc1
4 | 11 | > 4000 | 11 | 253 | 409 | – | – | C[C@]12Cn3cnc(-c4ccc(F)cc4)c3C=C1CCC[C@@H]2[C@](C)(O)c1ccc(Cl)s1
9 | 132 | > 4000 | 133 | 876 | – | – | – | CC(C)C[C@@](C)(O)[C@H]1CCCC2=Cc3c(-c4ccc(F)cc4)ncn3C[C@@]21C
– | – | > 4000 | – | – | – | – | – | C[C@]12Cn3cnc(-c4ccc(F)cc4)c3C=C1CCC[C@@H]2[C@](C)(O)c1ccncc1
– | – | > 4000 | – | – | – | – | – | C[C@]12Cn3cnc(-c4ccc(F)cc4)c3C=C1CCC[C@@H]2[C@](C)(O)c1ccccn1
– | – | > 4000 | – | – | – | – | – | C[C@]12Cn3cnc(-c4ccc(F)cc4)c3C=C1CCC[C@@H]2[C@](C)(O)C1CCOCC1
5.2 | 31 | > 4000 | – | > 10000 | – | – | – | C[C@]12Cn3cnc(-c4ccc(F)cc4)c3C=C1CCC[C@@H]2[C@](C)(O)C(F)(F)F
2 | 52 | > 4000 | 41 | – | 230 | – | – | C[C@]12Cn3cnc(-c4ccc(F)cc4)c3C=C1CCC[C@@H]2[C@](C)(O)c1cccs1
7.9 | 34 | > 4000 | 130 | 1130 | – | – | – | CCCC[C@@](C)(O)[C@H]1CCCC2=Cc3c(-c4ccc(F)cc4)ncn3C[C@@]21C
2.6 | 37 | > 4000 | 49 | > 5000 | – | – | – | C[C@]12Cn3cnc(-c4ccc(F)cc4)c3C=C1CCC[C@@H]2[C@](C)(O)C1CC1
